# Experimental data taken from ChEMBL document CHEMBL1275333, “Identification of non-peptide malignant brain tumor (MBT) repeat antagonists by virtual screening of commercially available compounds” (J Med Chem, 2010).
# Columns and labels:
# [1] = target: T1, Lethal(3)malignant brain tumor-like protein 1 (Homo sapiens, UniProt Q9Y468); assay: Inhibition of L3MBTL1 by alpha-screening
# T1 sequence (Q9Y468 whole entry): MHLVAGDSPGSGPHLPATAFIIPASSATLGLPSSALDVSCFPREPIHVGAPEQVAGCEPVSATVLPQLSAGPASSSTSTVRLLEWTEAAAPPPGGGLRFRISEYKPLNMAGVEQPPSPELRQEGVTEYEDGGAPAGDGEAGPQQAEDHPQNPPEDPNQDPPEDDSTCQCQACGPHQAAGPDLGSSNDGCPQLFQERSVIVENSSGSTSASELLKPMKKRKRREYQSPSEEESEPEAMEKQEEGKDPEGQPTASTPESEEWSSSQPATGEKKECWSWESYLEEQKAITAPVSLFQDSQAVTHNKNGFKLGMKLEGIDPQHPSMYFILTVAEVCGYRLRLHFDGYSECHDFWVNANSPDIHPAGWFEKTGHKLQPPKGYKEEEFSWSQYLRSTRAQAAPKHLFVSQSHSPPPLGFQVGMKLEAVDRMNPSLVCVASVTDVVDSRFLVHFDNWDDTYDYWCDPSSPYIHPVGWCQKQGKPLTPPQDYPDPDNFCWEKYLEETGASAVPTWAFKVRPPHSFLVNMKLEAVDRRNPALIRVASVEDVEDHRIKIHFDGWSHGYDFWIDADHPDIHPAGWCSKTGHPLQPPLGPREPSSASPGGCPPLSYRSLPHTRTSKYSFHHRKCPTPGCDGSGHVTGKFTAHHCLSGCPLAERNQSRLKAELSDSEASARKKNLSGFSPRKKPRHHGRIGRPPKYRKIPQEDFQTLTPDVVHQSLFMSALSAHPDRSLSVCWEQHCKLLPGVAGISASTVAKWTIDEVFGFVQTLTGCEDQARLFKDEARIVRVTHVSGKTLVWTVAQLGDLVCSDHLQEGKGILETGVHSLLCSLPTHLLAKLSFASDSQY
# [2] = target: T2, Lethal(3)malignant brain tumor-like protein 4 (Homo sapiens, UniProt Q8NA19); assay: Inhibition of L3MBTL4 by alpha-screening
# T2 sequence (Q8NA19 whole entry): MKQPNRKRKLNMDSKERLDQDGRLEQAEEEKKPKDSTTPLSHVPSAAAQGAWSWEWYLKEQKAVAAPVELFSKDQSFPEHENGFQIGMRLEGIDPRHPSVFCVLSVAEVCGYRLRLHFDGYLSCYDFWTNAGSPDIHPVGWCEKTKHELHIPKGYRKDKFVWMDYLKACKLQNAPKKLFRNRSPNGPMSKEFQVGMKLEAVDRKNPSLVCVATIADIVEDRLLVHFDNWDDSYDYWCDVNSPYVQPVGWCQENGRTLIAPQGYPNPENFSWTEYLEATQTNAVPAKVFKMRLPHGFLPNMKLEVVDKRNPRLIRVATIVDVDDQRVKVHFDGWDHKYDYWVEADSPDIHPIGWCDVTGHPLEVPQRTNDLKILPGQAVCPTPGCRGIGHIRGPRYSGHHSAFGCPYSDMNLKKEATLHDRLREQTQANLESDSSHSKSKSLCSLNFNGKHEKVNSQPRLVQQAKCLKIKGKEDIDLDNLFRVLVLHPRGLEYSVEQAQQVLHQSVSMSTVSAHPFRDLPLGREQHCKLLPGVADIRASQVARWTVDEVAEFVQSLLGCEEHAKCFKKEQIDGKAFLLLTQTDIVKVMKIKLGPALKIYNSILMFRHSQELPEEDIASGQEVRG
# [3] = target: MBT domain-containing protein 1 (Homo sapiens, UniProt Q05BQ5); assay: Inhibition of MBTD1 by alpha-screening
# [4] = target: T3, Lethal(3)malignant brain tumor-like protein 3 (Homo sapiens, UniProt Q96JM7); assay: Inhibition of L3MBTL3 by alpha-screening
# T3 sequence (Q96JM7 whole entry): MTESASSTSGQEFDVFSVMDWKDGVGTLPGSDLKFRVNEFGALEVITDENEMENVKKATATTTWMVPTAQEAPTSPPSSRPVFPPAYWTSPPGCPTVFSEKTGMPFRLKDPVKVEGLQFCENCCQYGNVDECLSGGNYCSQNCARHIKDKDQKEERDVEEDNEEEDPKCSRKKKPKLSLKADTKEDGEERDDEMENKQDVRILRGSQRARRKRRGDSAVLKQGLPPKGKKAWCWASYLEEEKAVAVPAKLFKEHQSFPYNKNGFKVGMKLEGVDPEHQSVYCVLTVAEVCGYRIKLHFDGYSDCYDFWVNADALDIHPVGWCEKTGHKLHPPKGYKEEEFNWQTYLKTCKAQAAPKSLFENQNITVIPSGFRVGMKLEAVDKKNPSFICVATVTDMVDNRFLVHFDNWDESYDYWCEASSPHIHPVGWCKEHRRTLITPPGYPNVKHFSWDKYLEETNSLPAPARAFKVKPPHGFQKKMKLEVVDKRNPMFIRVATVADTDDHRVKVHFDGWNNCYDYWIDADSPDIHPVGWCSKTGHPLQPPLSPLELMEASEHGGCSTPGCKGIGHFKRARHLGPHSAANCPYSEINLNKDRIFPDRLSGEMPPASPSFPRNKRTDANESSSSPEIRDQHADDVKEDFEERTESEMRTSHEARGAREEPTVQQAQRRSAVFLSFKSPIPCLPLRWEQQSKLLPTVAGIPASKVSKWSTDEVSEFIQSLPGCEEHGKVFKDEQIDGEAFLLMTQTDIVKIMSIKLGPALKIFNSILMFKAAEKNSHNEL
# [5] = AlphaScreen counterscreen signal interference at 100 uM
# Sequence of MBT domain-containing protein 1 (Q05BQ5 whole entry, the tested form may be a part): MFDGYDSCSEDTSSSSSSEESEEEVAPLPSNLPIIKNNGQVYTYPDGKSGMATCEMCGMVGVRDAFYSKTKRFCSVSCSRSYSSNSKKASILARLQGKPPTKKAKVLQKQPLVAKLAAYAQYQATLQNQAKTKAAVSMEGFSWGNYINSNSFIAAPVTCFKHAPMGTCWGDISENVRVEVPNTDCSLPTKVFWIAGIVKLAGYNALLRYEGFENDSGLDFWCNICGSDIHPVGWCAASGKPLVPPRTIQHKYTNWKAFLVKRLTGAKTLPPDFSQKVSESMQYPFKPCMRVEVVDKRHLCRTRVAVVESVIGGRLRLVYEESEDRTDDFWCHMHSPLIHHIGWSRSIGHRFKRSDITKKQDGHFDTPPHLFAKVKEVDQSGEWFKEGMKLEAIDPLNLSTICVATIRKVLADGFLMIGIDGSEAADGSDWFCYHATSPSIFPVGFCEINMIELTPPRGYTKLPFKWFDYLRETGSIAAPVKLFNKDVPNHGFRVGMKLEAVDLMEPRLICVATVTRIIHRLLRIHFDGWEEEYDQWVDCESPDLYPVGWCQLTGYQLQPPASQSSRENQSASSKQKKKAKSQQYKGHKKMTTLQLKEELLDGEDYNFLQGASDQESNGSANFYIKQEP
SMILES,IC50 [3] [µM],Activity [5] [%],IC50 [1] [µM],IC50 [2] [µM],IC50 [4] [µM]
CNCC1CCN(CCc2ccc(Cl)cc2)CC1,> 100,,69,> 100,
CNCCCCc1ccccc1,> 100,5,68,> 100,> 100
CNCCCCOc1ccc(C)cc1OC,> 100,30,> 100,92,84
CNCCCCOc1ccc(Cc2ccccc2)cc1,> 100,8,91,> 100,> 100
CCN(CC)CCCNS(=O)(=O)c1ccc(F)c(Cl)c1,> 100,8,> 100,> 100,
CCN(CC)CC#CCOC(=O)C(O)(c1ccccc1)C1CCCCC1 (stereo unspecified) [OXYBUTYNIN],> 100,,> 100,> 100,
CCN(CC)CCCNS(=O)(=O)c1cc(OC)ccc1OC,> 100,-6,> 100,> 100,48
CNCCC1OC(c2ccc(Cl)cc2)Cc2ccccc21 (stereo unspecified),> 100,,,78,
CCc1cc(OCCCCNC)ccc1Cl,> 100,,96,> 100,
CNCCCC(C#N)(c1ccccc1C)C(C)C (stereo unspecified),> 100,3,18,> 100,> 100
CN(C)CCC(=O)c1cc2c(cc1Br)OCCCO2,> 100,35,> 100,12,> 100
CNCCCC1Sc2ccccc2Oc2ccccc21 (stereo unspecified),> 100,,14,> 100,

# These reach a lower IC50 [3]. Values come first.
IC50 [3] [µM],Activity [5] [%],SMILES,IC50 [1] [µM],IC50 [2] [µM],IC50 [4] [µM]
59,,Cc1ccc(S(=O)(=O)NCCCN2CCCC2)cc1,17,> 100,
73,15,Cc1ncc(CCCCN(C)C)c2c1[nH]c1ccccc12,21,> 100,5.7
34,,CN(C)CCC(c1ccc(Cl)cc1)c1ccccn1 (stereo unspecified) [CHLORPHENIRAMINE],,,
66,22,CC(CCN(C)C)OC(=O)c1ccc(C(C)c2ccccc2)o1 (stereo unspecified),84,> 100,75
37,3,CN(C)CCCNC(=O)C1(O)c2cc(Br)ccc2NC(=O)N1c1ccc(Cl)cc1 (stereo unspecified),52,> 100,
